Data: patent publication US20260297085A1, “1 H-PYRROLO[2,3-B]PYRIDIN-4-YL]-2-OXOPYRROLIDINE-3-CARBONITRILE DERIVATIVES AS TYROSINE KINASE 2 (TYK2) INHIBITORS FOR THE TREATMENT OF INFLAMMATORY DISEASES” (BIOGEN MA INC., priority 2023, published 2026)
Counter-ions that a name gives are not always drawn.

Assays:
Conditions in all cases: JH1 kinase domain, ADP-Glo
[1] = molecular target: T1, human JAK2 kinase domain (JH1) (Homo sapiens, UniProt O60674); assay: JH1 biochemical assay for JAK2 (ADP-Glo kinase assay, recombinant JH1 catalytic domain, JAK3-974 peptide, 15 μM ATP)
T1 construct: recombinantly generated catalytic kinase (also known as JH1) domain of human JAK1, JAK2, JAK3 and TYK2
Outline: (§1)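 Reactions contain 50 μM peptide and run 100 minutes, with enzyme at 4, 0.2, 0.3 and 2 nM for JAK1, JAK2, JAK3 and TYK2. Generated ADP is read by luminescence; IC50 derives from normalized dose-response curves.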

[2] = molecular target: T2, human JAK1 kinase domain (JH1) (Homo sapiens, UniProt P23458); assay: JH1 biochemical assay for JAK1 (ADP-Glo kinase assay, recombinant JH1 catalytic domain, JAK3-342 peptide, 35 μM ATP)
T2 construct: recombinantly generated catalytic kinase (also known as JH1) domain of human JAK1, JAK2, JAK3 and TYK2
Outline: as §1

[3] = molecular target: T3, human JAK3 kinase domain (JH1) (Homo sapiens, UniProt P52333); assay: JH1 biochemical assay for JAK3 (ADP-Glo kinase assay, recombinant JH1 catalytic domain, JAK3-974 peptide, 4 μM ATP)
T3 construct: recombinantly generated catalytic kinase (also known as JH1) domain of human JAK1, JAK2, JAK3 and TYK2
Outline: as §1

[4] = molecular target: T4, human TYK2 kinase domain (JH1) (Homo sapiens, UniProt P29597); assay: JH1 biochemical assay for TYK2 (ADP-Glo kinase assay, recombinant JH1 catalytic domain, JAK3-974 peptide, 10 μM ATP)
T4 construct: recombinantly generated catalytic kinase (also known as JH1) domain of human JAK1, JAK2, JAK3 and TYK2
T4 sequence (P29597 897-1176 limits assumed): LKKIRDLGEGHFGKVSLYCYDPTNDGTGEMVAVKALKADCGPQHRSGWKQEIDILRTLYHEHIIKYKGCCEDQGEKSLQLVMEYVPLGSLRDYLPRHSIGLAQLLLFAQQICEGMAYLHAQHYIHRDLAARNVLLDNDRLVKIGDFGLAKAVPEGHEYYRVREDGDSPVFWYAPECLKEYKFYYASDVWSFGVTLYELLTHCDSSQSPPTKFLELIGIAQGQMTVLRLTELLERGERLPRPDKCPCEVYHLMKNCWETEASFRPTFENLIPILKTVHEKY
Outline: as §1

T3 sequence (P52333 822-1111 limits assumed): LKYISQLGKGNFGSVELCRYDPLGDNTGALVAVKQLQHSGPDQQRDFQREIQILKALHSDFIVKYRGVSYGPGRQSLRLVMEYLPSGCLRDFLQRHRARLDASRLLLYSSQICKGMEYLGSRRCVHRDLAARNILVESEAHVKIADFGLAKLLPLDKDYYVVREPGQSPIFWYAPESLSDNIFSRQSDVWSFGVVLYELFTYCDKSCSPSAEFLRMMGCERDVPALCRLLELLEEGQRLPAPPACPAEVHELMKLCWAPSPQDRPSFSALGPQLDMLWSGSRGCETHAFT
T1 sequence (O60674 849-1124 limits assumed): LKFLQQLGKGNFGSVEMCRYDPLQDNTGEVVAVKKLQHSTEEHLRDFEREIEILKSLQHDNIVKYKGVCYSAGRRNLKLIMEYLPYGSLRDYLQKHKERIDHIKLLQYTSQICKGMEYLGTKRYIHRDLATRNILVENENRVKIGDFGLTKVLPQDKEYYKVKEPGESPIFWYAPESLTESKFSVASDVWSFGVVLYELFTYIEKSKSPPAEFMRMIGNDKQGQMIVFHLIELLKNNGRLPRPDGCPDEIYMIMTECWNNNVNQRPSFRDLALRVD
T2 sequence (P23458 875-1153 limits assumed): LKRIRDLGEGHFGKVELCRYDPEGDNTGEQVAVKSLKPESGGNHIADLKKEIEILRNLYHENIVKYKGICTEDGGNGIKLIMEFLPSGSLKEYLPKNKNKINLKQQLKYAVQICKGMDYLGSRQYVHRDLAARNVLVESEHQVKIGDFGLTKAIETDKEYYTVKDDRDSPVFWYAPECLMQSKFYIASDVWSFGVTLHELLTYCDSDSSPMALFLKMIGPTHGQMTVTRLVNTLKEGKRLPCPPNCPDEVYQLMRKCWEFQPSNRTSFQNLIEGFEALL

IC50 [1] [µM]	IC50 [2] [µM]	IC50 [3] [µM]	IC50 [4] [µM]	SMILES
1 to 5	0.1 to 1	0.1 to 1	0.02 to 0.05	Cc1csc(-c2cc3c(N4C[C@@H](C)[C@@](C#N)(C5CC5)C4=O)ccnn3c2)n1 [Example 113, (3R,4S)-3-cyclopropyl-4-methyl-1-(6-(4-methylthiazol-2-yl)pyrrolo[1,2-b]pyridazin-4-yl)-2-oxopyrrolidine-3-carbonitrile trifluoroacetate]
> 10	> 10	1 to 5	0.02 to 0.05	C[C@@H]1CN(c2ccnn3cc(-c4nc(C#N)cs4)cc23)C(=O)[C@]1(C#N)C1CC1 [Example 114, 2-(4-((3R,4S)-3-cyano-3-cyclopropyl-4-methyl-2-oxopyrrolidin-1-yl)pyrrolo[1,2-b]pyridazin-6-yl)thiazole-4-carbonitrile trifluoroacetate]
> 10	> 10	5 to 10	> 0.1	C[C@@H]1CN(c2ccnn3cc(-c4ncn(C)n4)cc23)C(=O)[C@]1(C#N)C1CC1 [Example 115, (3R,4S)-3-cyclopropyl-4-methyl-1-(6-(1-methyl-1H-1,2,4-triazol-3-yl)pyrrolo[1,2-b]pyridazin-4-yl)-2-oxopyrrolidine-3-carbonitrile trifluoroacetate]
1 to 5	0.1 to 1	0.1 to 1	0.02 to 0.05	C[C@@H]1CN(c2ccnn3cc(-c4cnc5cnccn45)cc23)C(=O)[C@]1(C#N)C1CC1 [Example 116, (3R,4S)-3-cyclopropyl-1-(6-(imidazo[1,2-a]pyrazin-3-yl)pyrrolo[1,2-b]pyridazin-4-yl)-4-methyl-2-oxopyrrolidine-3-carbonitrile trifluoroacetate]
1 to 5	1 to 5	1 to 5	0.02 to 0.05	C[C@@H]1CN(c2ccnn3cc(-c4ncc(C#N)s4)cc23)C(=O)[C@]1(C#N)C1CC1 [Example 117, 2-(4-((3R,4S)-3-cyano-3-cyclopropyl-4-methyl-2-oxopyrrolidin-1-yl)pyrrolo[1,2-b]pyridazin-6-yl)thiazole-5-carbonitrile trifluoroacetate]
1 to 5	1 to 5	0.1 to 1	0.02 to 0.05	Cc1nc(-c2cc3c(N4C[C@@H](C)[C@@](C#N)(C5CC5)C4=O)ccnn3c2)ccc1C#N [Example 119, 6-(4-((3R,4S)-3-cyano-3-cyclopropyl-4-methyl-2-oxopyrrolidin-1-yl)pyrrolo[1,2-b]pyridazin-6-yl)-2-methylnicotinonitrile trifluoroacetate]
> 10	5 to 10	1 to 5	> 0.1	C[C@@H]1CN(c2ccnn3cc(-c4nccc(C(F)(F)F)n4)cc23)C(=O)[C@]1(C#N)C1CC1 [Example 120, (3R,4S)-3-cyclopropyl-4-methyl-2-oxo-1-(6-(4-(trifluoromethyl)pyrimidin-2-yl)pyrrolo[1,2-b]pyridazin-4-yl)pyrrolidine-3-carbonitrile trifluoroacetate]
5 to 10	1 to 5	1 to 5	> 0.1	C[C@@H]1CN(c2ccnn3cc(-c4cc(C(F)(F)F)ncn4)cc23)C(=O)[C@]1(C#N)C1CC1 [Example 121, (3R,4S)-3-cyclopropyl-4-methyl-2-oxo-1-(6-(6-(trifluoromethyl)pyrimidin-4-yl)pyrrolo[1,2-b]pyridazin-4-yl)pyrrolidine-3-carbonitrile trifluoroacetate]
> 10	5 to 10	> 10	> 0.1	COc1ccnc(-c2cc3c(N4C[C@@H](C)[C@@](C#N)(C5CC5)C4=O)ccnn3c2)n1 [Example 122, (3R,4S)-3-cyclopropyl-1-(6-(4-methoxypyrimidin-2-yl)pyrrolo[1,2-b]pyridazin-4-yl)-4-methyl-2-oxopyrrolidine-3-carbonitrile trifluoroacetate]
